Source: patent US20250011311A1, “AMIDO HETEROAROMATIC COMPOUNDS” (AstraZeneca AB, priority 2022, published 2025)

Experiments:
[1] = target: recombinant 17bHSD13 (N2-K300) (Homo sapiens (Human), UniProt Q7Z5P4); test: In Vitro 17bHSD13 Enzyme Assay; type: biochemical; conditions: 80 nM 17bHSD13, 0.5 mM NAD, 20 μM Estradiol, 2.5 h; estradiol to estrone by LC-MS/MS
Experimental: In Vitro 17bHSD13 Enzyme Assay
The enzyme reaction was initiated by addition, using CERTUS-FLEX dispenser (GYGER), of 20 μl of substrate solution containing NAD (SIGMA, N1511) and Estradiol (SIGMA, E8875). […] Final assay conditions were 80 nM of 17bHSD13, 0.5 mM of NAD, 20 μM Estradiol and various concentrations of compound in buffer (5 mM EDTA (TEKNOVA E0306), 0.01% DDM (AFFYMETRIX D310) in 50 mM Tris-Cl, pH 7.4).
(§1) SCIEX LC-MS/MS system: Sample was injected with CTC analytical injector, SHIMATZU LC pumps LC20 and analyzed on the SCIEX API 5000 LCMSMS system with the following settings. […] The mobile phases consist of A (water with 0.2% formic acid) and B (acetonitrile with 0.2% formic acid). The LC gradient profile is as follows: 50% B during 0 to 0.5 min, a linear increase to 100% B during 0.5 to 1 min, hold at 100% B during 1 to 1.6 min then back to 50% B from 1.6 to 2 min. […] Detection was performed on a API 5000 LC/MS/MS system with a triple quadrupole mass spectrometer, a TURBO V ion source, in multiple reaction monitoring (MRM) mode at positive polarity with APCI probe. […] The dwell times were 100 ms for each transition and a depolarization and collision energy of 100 and 40, respectively. Data from MS signals was using area under curve (AUC). Ratio=Estrone/(Estrone+Estradiol)
(§2) […] […] was used for curve fitting and calculation of IC50 values.
(§3) Compound effect was calculated with the formula below;
(§4) where X represents the effect in the presence of test compound, min is DMSO and max is the maximum inhibition of enzyme using a known inhibitor as control.

[2] = target: over expressed HSD17β13 in HEK293S cells (Homo sapiens (Human), UniProt Q7Z5P4); test: In Vitro 17bHSD13 Cell Assay; type: cell-based; conditions: HEK293S cells over expressing HSD17β13; estradiol to estrone conversion, 18 h, LC-MS/MS; read-out: 17bHSD1713 Cell assay IC50
over expressed HSD17β13 in HEK293S cells, sequence (Q7Z5P4 20-300): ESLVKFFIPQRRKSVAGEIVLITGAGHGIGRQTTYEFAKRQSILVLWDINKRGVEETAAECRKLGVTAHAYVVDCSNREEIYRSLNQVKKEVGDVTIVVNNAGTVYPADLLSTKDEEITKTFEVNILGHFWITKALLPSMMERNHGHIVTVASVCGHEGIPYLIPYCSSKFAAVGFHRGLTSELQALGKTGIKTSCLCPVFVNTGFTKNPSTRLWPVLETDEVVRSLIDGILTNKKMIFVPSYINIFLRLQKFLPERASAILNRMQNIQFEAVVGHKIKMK
Experimental: In Vitro 17bHSD13 Cell Assay
Inhibition of 17bHSD13 was measured in a cell-based assay with over expressed HSD17β13 in HEK293S cells, measuring estradiol to estrone conversion by LCMS/MS.
Samples were analyzed using LC-MS/MS.
as §1, with “analysed” for “analyzed”
as §2, §3, §4

[3] = target: over expressed HSD17β9 in HEK293S cells (Homo sapiens (Human), UniProt Q92781); test: In Vitro 17bHSD9 Cell Assay; type: cell-based; conditions: HEK293S cells over expressing HSD17β9; retinol to retinal conversion, 18 h, LC-MS/MS; read-out: 17bHSD9 Cell assay IC50
over expressed HSD17β9 in HEK293S cells, sequence (Q92781 whole entry): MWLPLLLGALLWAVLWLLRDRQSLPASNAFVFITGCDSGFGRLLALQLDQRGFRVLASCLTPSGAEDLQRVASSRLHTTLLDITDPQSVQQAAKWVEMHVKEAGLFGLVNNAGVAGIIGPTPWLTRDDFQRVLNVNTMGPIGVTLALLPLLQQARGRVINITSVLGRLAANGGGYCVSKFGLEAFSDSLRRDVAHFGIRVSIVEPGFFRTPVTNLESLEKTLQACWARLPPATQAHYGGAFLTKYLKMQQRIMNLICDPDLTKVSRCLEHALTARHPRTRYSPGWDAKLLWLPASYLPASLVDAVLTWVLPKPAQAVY
Experimental: In Vitro 17bHSD9 Cell Assay
Inhibition of 17bHSD9 was measured in a cell-based assay with over expressed HSD17β9 in HEK293S cells, measuring retinol to retinal conversion by LCMS/MS.
Cells were plated in 384 well plates (GREINER CELL culture plate 384w black/clear Poly-D-Lysine) at 10 K c/w in 30 μl of culture media (DMEM with GLUTAMAX plus 10% FBS). […] After 18 h of cell culturing for 20 μl of media was transferred using BRAVO dispensing robot (AGILENT) to a GREINER PP 384 well plate (781280) and 40 μl of 50% acetonitrile was added. Samples were analyzed using LC-MS/MS.
SCIEX LC-MS/MS system: Sample was injected with CTC analytical injector, SHIMATZU LC pumps LC20 and analysed on the SCIEX API 5000 LCMSMS system with the following settings. Samples were chromatographed on a WATERS, symmetry, C8, 3.5 μm, 2.1×50 mm) column at constant flow rate of 0.5 mL/min. The mobile phases consists of A (water with 0.2% formic acid) and B (acetonitrile with 0.2% formic acid). The LC gradient profile is as follows: 50% B during 0 to 0.1 min, a linear increase to 100% B during 0.1 to 0.8 min, hold at 100% B during 0.8 to 1.5 min then back to 50% B from 1.5 to 1.6 min and hold during run time. The run time was 2 min with retention times of approximately 1.54 and 1.62 min for Retinol and Retinal, respectively. Detection was performed on a API 5000 LC/MS/MS system with a triple quadrupole mass spectrometer, a TURBO V ion source, in multiple reaction monitoring (MRM) mode at positive polarity with ESI probe. The MRM pairs were m/z 269.3 to m/z 93.0 and m/z 285.2 to 161.0. for Retinol and Retinal, respectively. The dwell times were 100 ms for each transition and a depolarization and collision energy of 50 and 25, respectively. Data from MS signals was using area under curve (AUC). Ratio=Retinal/(Retinal+Retinol).
as §2, §3, §4

recombinant 17bHSD13 (N2-K300), sequence (Q7Z5P4 2-300): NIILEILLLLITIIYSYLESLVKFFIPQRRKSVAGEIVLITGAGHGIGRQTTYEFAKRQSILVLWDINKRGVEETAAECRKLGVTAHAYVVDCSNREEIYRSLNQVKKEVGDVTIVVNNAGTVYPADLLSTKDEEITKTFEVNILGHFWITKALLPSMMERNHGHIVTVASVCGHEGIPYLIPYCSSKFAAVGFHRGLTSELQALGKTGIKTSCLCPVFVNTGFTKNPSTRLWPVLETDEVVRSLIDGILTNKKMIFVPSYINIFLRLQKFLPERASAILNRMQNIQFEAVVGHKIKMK

SMILES | IC50 [1] [nM] | IC50 [2] [nM] | IC50 [3] [nM]
CN(C(=O)c1noc(-c2ccc(F)c(O)c2)n1)c1nnnn1-c1ccccc1 [Example 92, 5-(4-Fluoro-3-hydroxyphenyl)-N-methyl-N-(1-phenyl-1H-tetrazol-5-yl)-1,2,4-oxadiazole-3-carboxamide] | 41 | 1540 | > 50000
COc1cccc(N2CCN(C(=O)c3noc(-c4cc(C(F)(F)F)[nH]c(=O)c4)n3)CC2)c1 [Example 10, 4-(3-(4-(3-Methoxyphenyl)piperazine-1-carbonyl)-1,2,4-oxadiazol-5-yl)-6-(trifluoromethyl)pyridin-2(1H)-one] | 474 | 4140 | > 50000
CN(C(=O)c1noc(-c2cc(F)c(F)c(O)c2F)n1)c1cccc(C#N)c1 [Example 63, N-(3-Cyanophenyl)-N-methyl-5-(2,4,5-trifluoro-3-hydroxyphenyl)-1,2,4-oxadiazole-3-carboxamide] | – | 1190 | –
N#Cc1c(C(=O)N2CC(C(F)(F)F)C2)noc1-c1cc(F)c(F)c(O)c1F [Example 28, 5-(2,4,5-Trifluoro-3-hydroxyphenyl)-3-(3-(trifluoromethyl)azetidine-1-carbonyl)isoxazole-4-carbonitrile] | 368 | 4130 | –
O=C(c1noc(-c2cc(F)c(F)c(O)c2F)n1)N1CCC2(C1)OCc1ccccc12 (stereo not shown) [Example 102, (3H-Spiro[isobenzofuran-1,3′-pyrrolidin]-1′-yl)(5-(2,4,5-trifluoro-3-hydroxyphenyl)-1,2,4-oxadiazol-3-yl)methanone] | 52 | 700 | > 50000
O=C(NCc1ccnn1C1CCCCC1)c1cnc(-c2ccc(F)c(O)c2)o1 [Example 100, N-((1-Cyclohexyl-1H-pyrazol-5-yl)methyl)-2-(4-fluoro-3-hydroxyphenyl)oxazole-5-carboxamide] | 5340 | 18100 | –
N#Cc1c(C(=O)N2CCC(n3cc(-c4ccc(F)cc4)[nH]c3=O)CC2)noc1-c1cc(F)c(F)c(O)c1F [Example 24, 3-(4-(4-(4-Fluorophenyl)-2-oxo-2,3-dihydro-1H-imidazol-1-yl)piperidine-1-carbonyl)-5-(2,4,5-trifluoro-3-hydroxyphenyl)isoxazole-4-carbonitrile] | 198 | 3500 | –
Cc1ccc2[nH]c(CN(C)C(=O)c3noc(-c4cc(F)c(F)c(O)c4F)n3)nc2c1 [Example 73, N-Methyl-N-((5-methyl-1H-benzo[d]imidazol-2-yl)methyl)-5-(2,4,5-trifluoro-3-hydroxyphenyl)-1,2,4-oxadiazole-3-carboxamide] | 88 | 21600 | > 50000
O=C(c1noc(-c2cc(F)c(F)c(O)c2F)n1)N1Cc2ccc(F)cc2C1 [Example 65, (5-Fluoroisoindolin-2-yl)(5-(2,4,5-trifluoro-3-hydroxyphenyl)-1,2,4-oxadiazol-3-yl)methanone] | 134 | 200 | –
COc1cccc(N2CCN(C(=O)c3noc(-c4cc(F)c(F)c(O)c4F)n3)CC2)c1 [Example 61, (4-(3-Methoxyphenyl)piperazin-1-yl)(5-(2,4,5-trifluoro-3-hydroxyphenyl)-1,2,4-oxadiazol-3-yl)methanone] | 50 | 730 | > 50000
COc1ccc(N2CCN(C(=O)c3noc(-c4cc(F)c(F)c(O)c4F)n3)CC2)cc1 [Example 55, (4-(4-Methoxyphenyl)piperazin-1-yl)(5-(2,4,5-trifluoro-3-hydroxyphenyl)-1,2,4-oxadiazol-3-yl)methanone] | 112 | 960 | –
O=C(c1noc(-c2cc(F)c(F)c(O)c2F)n1)N1CCN(c2ccccc2)CC1 [Example 81, (4-Phenylpiperazin-1-yl)(5-(2,4,5-trifluoro-3-hydroxyphenyl)-1,2,4-oxadiazol-3-yl)methanone] | 95 | 410 | > 50000
CN(C)C(=O)C1CCCN1C(=O)c1ccc(-c2cc(F)c(F)c(O)c2F)s1 (stereo not shown) [Example 105, N,N-Dimethyl-1-(5-(2,4,5-trifluoro-3-hydroxyphenyl)thiophene-2-carbonyl)pyrrolidine-2-carboxamide] | 3760 | 1260 | –
CN(C(=O)c1nnc(-c2ccc(F)c(O)c2)o1)c1nnnn1-c1ccccc1 [Example 91, 5-(4-Fluoro-3-hydroxyphenyl)-N-methyl-N-(1-phenyl-1H-tetrazol-5-yl)-1,3,4-oxadiazole-2-carboxamide] | 166 | > 50000 | –
O=C(c1cc(-c2ccc(F)c(O)c2)on1)N1CC[C@H](c2ccccc2)C1 [Example 101, (R)-(5-(4-Fluoro-3-hydroxyphenyl)isoxazol-3-yl)(3-phenylpyrrolidin-1-yl)methanone] | 50 | 420 | > 50000
Cc1cc2nc(CN(C)C(=O)c3noc(-c4cc(F)c(F)c(O)c4F)n3)[nH]c2cc1C [Example 71, N-((5,6-Dimethyl-1H-benzo[d]imidazol-2-yl)methyl)-N-methyl-5-(2,4,5-trifluoro-3-hydroxyphenyl)-1,2,4-oxadiazole-3-carboxamide] | 68 | 28400 | –
Cc1cccnc1CN(C(=O)c1noc(-c2cc(F)c(F)c(O)c2F)n1)C(C)C [Example 75, N-Isopropyl-N-((3-methylpyridin-2-yl)methyl)-5-(2,4,5-trifluoro-3-hydroxyphenyl)-1,2,4-oxadiazole-3-carboxamide] | 268 | 5600 | –
